{"source": "patent US7329798B2", "about": "“Harvest-inducible regulatory elements and methods of using same” (University of Guelph, priority 2002, dated 2008)", "key": {"[1]": {"system": "H7 regulatory region fused to GUS reporter gene in transgenic tobacco callus", "experiment": "In vitro induction of GUS expression by ABA in callus (histochemical GUS assay)", "assay_type": "cell-based, tobacco (cultivar PetH4)", "details": "callus on solid media pH 5.0 with 40 μM ABA, 2 days, 25° C.", "text": "(§1) In order to test induction of the expression of transgenes using abscisic acid (ABA), the H7 promoter was fused to the beta-glucuronidase (GUS) reporter gene and histochemical assays conducted for GUS gene activity, which results in a blue colour in plant tissue (Jefferson et al., 1987, EMBO J. 6:3901-7). The promoter region for the H7 (nucleotides 1-634 of FIG. 8; SEQ ID NO:4) was fused to the 5′ terminus of the GUS gene in the binary vector pB1101 (Jefferson et al., 1987, EMBO J. 6:3901-7, FIG. 1a), as described in Example 4.\n(§2) Transgenic plants were grown to maturity, but prior to flowering, in a greenhouse at 23-25° C., with supplemental light to provide an approximately 16 h photoperiod and with 20-20-20 fertilizer as required.\nLeaf discs were cut and surface sterilized using 3.5% bleach for 20 min, then washed with ethanol and rinsed three times with distilled water. The washed discs were plated in Petri dishes on original callusing media (MS medium supplemented with vitamins, 2.0 mg/L NAA, 0.2 mg/L BAP pH 5.8, 7 g/L agar solid media and 100 mg/L kanamycin). The Petri dishes were then placed in a dark incubator at 25° C. for 3 days. Following dark incubation, plated discs were then incubated at 25° C. with a 16 h photoperiod for 2-3 weeks.\nOver this time, abundant callus (white or pale green) are formed, overgrowing the original tissue. […]"}, "[2]": {"system": "H7 regulatory region fused to GUS reporter gene in transgenic tobacco plants", "experiment": "In planta induction of GUS expression by ABA (histochemical GUS assay)", "assay_type": "in vivo, tobacco (cultivar PetH4)", "details": "plants sprayed with 25-50 mL 6.0 AM ABA in distilled water with Tween-20, left 24 h; non-treated plants exhibited no GUS activity", "procedure": "Tobacco leaves from regenerated plants grown in the greenhouse, and leaves and stems from M. truncatula plants grown from the cocultivated seedlings were incubated in the X-gluc substrate and the green pigments removed for visualization of the blue precipitate resulting from GUS enzyme activity (Jefferson et al., 1987, EMBO J. 6:3901-7).\nas §1\nThe binary vector was transferred tobacco plants (cultivar PetH4) using Agrobacterium tumefaciens, as previously described in Example 4.\nas §2\nPlants were sprayed with 25-50 mL 6.0 AM ABA (trans isomers ABA, Sigma) in distilled water, with a drop of Tween™-20 until the leaves were dripping. […]"}}}
{"smiles": "CC1=CC(=O)CC(C)(C)[C@@]1(O)/C=C/C(C)=C\\C(=O)O", "note": "[ABA, abscisic acid]", "values": [{"measurement": "GUS expression in callus", "setting": "[1]", "result": "GUS is expressed in the callus"}, {"measurement": "GUS activity in leaves", "setting": "[2]", "result": "GUS activity was detected"}]}
